The values that follow come from US9388123B2, “LSD1-selective inhibitor having lysine structure” (KYOTO UNIVERSITY, priority 2012, dated 2016).

One data set has as its system SH-SY5Y cells. The data set can be described thus: Cancer cell growth inhibition evaluation (MTT assay). In kind it is cell-based. The conditions noted are these: Homo sapiens, read-out: GI50 (μM) SH-SY5Y. The procedure: (§1) Evaluation was performed by measuring the inhibitory activities of a compound against the growth of a human cervical cancer-derived cell line, HeLa cells, and a human neuroblastoma cell line, SH-SY5Y cells. Details thereof are shown below. […] This assay involves, as a principle thereof, measuring an absorbance at the time of color development through a reaction of NADH, which is contained in the mitochondria of viable cells, and MTT to measure the amount of NADH. The assay was performed by the following procedure. […] After the culture, a compound was added. Then, the cells were cultured for an additional 48 hours, and then 5 mg/ml MTT liquid was added at 10 μl per well. The cells were cultured for an additional 3 hours in a CO2 incubator. A solubilization solution (0.04 mol/l hydrochloric acid-isopropanol) was added at 100 μl per well and the mixture was vigorously vortexed. After that, an absorbance at 560 nm was measured with Fusion-aFP (manufactured by PerkinElmer) and the amount of viable cells was determined.

The next data set has as its system HeLa cells. The description is as above. The data set is classed as cell-based. As to conditions: Homo sapiens, 48 h, read-out: GI50 (μM) HeLa. The procedure: as §1
A further data set concerns THP1. As to the kind of experiment: Leukemia cell growth inhibition evaluation (WST-8). In kind it is cell-based. The conditions noted are these: Homo sapiens, THP-1; day 3 (72-hour culture); read-out: Human leukemia cell line GI50 (μM) THP1. An excerpt: (§2) HL60, THP-1, K562, U937, KGla, HEL, and MDS-L were used as human leukemia cells. The cell lines are cell lines established from various subtypes such as acute myeloid leukemia, acute promyelocytic leukemia, acute monocytic leukemia, acute erythroid leukemia, and myelodysplastic syndromes, which progress to leukemia. Cells obtained by introducing leukemia fusion genes MLL/AF9, MLL/SEPT6, and MLL/ENL into the bone marrow of normal mice with a retrovirus so as to develop leukemia were used as murine leukemia cell lines.
(§3) This assay method involves, as a principle thereof, measuring an absorbance (a peak at from 450 nm to 490 nm) at the time of color development through a reaction of NADH, which is contained in the mitochondria of viable cells, and WST-8 to measure the amount of NADH. Specifically, the assay was performed by the following procedure.
(§4) The cells were plated at 50 μl, i.e., 5,000 cells per well in a 96-well microtiter plate. Next, a test compound dissolved in DMSO was mixed at various concentrations into the same medium, and 50 μl of each of the mixtures was added to each well. A medium was prepared so that the final concentration of the test compound was from 0 μM to 50 μM and so that the addition amount of DMSO was the same, and the cells were cultured in a CO2 incubator. On day 0 before the addition and on day 1, day 2, and day 3 after the addition, WST-8 reagent was added at 20 μl per well, and the cells were cultured for 1 hour in a CO2 incubator. After that, measurement was performed with ARVO X3 (manufactured by PerkinElmer).
(§5) Specifically, an absorbance at 450 nm was measured, an absorbance at 595 nm was measured in the same well, and the absorbance at 595 nm was subtracted from the absorbance at 450 nm to perform background correction for the well itself. Further, a well containing only a medium free of cells was subjected to the same measurement. A value in this case was also subtracted. Thus, the amount of viable cells was represented as a numerical value with correction of the influence of a medicament or a medium as well. Under a condition not containing the test compound (addition of only dimethyl sulfoxide), an exponential increase in number of viable cells on day 1, day 2, and day 3 in the stated order was confirmed.

In a further data set the test system is HL60. As to the kind of experiment: Leukemia cell growth inhibition evaluation (WST-8). In kind it is cell-based. The conditions noted are these: Homo sapiens, HL-60; day 3 (72-hour culture); read-out: Human leukemia cell line GI50 (μM) HL60.
Source text: as §2, §3, §4, §5

In the next data set the test system is U937. The data set can be described thus: Leukemia cell growth inhibition evaluation (WST-8). In kind it is cell-based. As to conditions: Homo sapiens, U-937; day 3 (72-hour culture); read-out: Human leukemia cell line GI50 (μM) U937.
Source text: as §2, §3, §4, §5

The subject of the next data set is HEL. As to the kind of experiment: Leukemia cell growth inhibition evaluation (WST-8). In kind it is cell-based. The conditions noted are these: Homo sapiens, day 3 (72-hour culture), read-out: Human leukemia cell line GI50 (μM) HEL.
Source text: as §2, §3, §4, §5

For a further data set, the system named is KG1a. As to the kind of experiment: Leukemia cell growth inhibition evaluation (WST-8). In kind it is cell-based. As to conditions: Homo sapiens, KG-1a; day 3 (72-hour culture); read-out: Human leukemia cell line GI50 (μM) KG1a.
Source text: as §2, §3, §4, §5

Another data set concerns MDS-L. The data set can be described thus: Leukemia cell growth inhibition evaluation (WST-8). The conditions noted are these: Homo sapiens; day 3 (72-hour culture); read-out: Human leukemia cell line GI50 (μM) MDS-L. The data set is classed as cell-based.
Source text: as §2, §3, §4, §5

Data set [1] deals with T1, monoamine oxidase B (MAO-B) (Homo sapiens, UniProt P27338).
T1 construct: purchased Sigma-Aldrich
T1 sequence (P27338 1-520): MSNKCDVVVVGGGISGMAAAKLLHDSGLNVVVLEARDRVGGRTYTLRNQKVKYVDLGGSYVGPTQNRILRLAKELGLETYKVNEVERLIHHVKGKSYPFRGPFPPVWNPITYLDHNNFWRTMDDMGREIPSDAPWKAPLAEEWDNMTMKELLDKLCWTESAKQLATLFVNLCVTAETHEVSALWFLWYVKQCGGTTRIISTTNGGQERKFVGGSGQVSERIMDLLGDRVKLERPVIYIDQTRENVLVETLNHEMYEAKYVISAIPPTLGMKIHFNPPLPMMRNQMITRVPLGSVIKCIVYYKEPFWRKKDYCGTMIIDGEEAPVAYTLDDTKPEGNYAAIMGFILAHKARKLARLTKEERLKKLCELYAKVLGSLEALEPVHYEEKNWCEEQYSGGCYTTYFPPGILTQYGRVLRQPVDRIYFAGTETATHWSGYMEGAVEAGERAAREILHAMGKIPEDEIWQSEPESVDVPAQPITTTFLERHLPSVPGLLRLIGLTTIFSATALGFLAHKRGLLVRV
As to the kind of experiment: Monoamine oxidase inhibition test (MAO-Glo assay kit). The data set is classed as biochemical. As to conditions: room temperature, 1 hour.
Method: (§6) To the reaction liquid was added 50 μL of a luciferin detection reagent, and the mixture was subjected to a reaction at room temperature for 20 minutes.

Data set [2] has as its target T2, monoamine oxidase A (MAO-A) (Homo sapiens, UniProt P21397).
T2 construct: purchased Sigma-Aldrich
T2 sequence (P21397 1-527): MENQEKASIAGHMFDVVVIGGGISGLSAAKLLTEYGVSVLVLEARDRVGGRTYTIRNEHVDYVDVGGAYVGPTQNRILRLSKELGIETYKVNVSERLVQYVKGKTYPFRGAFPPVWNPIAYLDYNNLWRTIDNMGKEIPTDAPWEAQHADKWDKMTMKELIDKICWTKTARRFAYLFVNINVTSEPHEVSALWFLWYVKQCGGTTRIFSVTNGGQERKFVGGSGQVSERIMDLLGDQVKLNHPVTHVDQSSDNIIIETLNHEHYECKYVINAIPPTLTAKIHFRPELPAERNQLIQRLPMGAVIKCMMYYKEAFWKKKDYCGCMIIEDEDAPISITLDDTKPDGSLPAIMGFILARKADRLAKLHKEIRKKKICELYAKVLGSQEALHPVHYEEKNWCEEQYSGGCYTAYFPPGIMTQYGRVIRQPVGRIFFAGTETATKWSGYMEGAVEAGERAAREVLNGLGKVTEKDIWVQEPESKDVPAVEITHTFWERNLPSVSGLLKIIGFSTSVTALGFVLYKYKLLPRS
The data set is described as above. The data set is classed as biochemical. The conditions noted are these: room temperature, 1 hour.
Method: as §6

Data set [3] deals with human leukemia cell lines. The data set can be described thus: Leukemia cell growth inhibition evaluation, summary in words. In kind it is cell-based. As to conditions: Table 5.
Source text: as §2, §3, §4, §5

The test system of data set [4] is murine leukemia cell lines. Described as above. The data set is classed as cell-based. As to conditions: Table 6.
Source text: as §2, §3, §4, §5

In data set [5] the test system is bone marrow cells of normal mice. As to the kind of experiment: Normal cell growth inhibition evaluation (colony forming ability in methylcellulose semi-solid medium). In kind it is cell-based. As to conditions: at 10 μM; 10 days culture; FIG. 1. The source says:
In general, a semi-solid medium obtained by adding a cytokine involved in differentiation induction to a methylcellulose medium is used to evaluate a colony forming ability. Some of the bone marrow cells contain hematopoietic stem cells and precursor cells, which are sources of hematopoietic cells, and these cells can create a mass (called a colony) formed of several tens, several hundreds, and in some cases, several thousands of cells from a single cell on a semi-solid medium. The colony forming ability of the bone marrow cells may be evaluated by counting the number of the colonies. The colony forming ability in the semi-solid medium well reflects an actual supply ability and construction ability from the hematopoietic stem cells and precursor cells to the hematopoietic cells in vivo.
To 3 ml of MethoCult M3434 (methylcellulose-based semi-solid medium; StemCell Technologies; containing interleukin 3(IL-3), interleukin 6 (IL-6), erythropoietin (EPO), and stem cell factor (SCF)) were added 600,000 bone marrow cells of normal mice (suspended in 300 μl of IMDM medium), and the mixture was stirred well and plated at 1.1 ml per 3.5-cm culture dish. The cells were cultured under the conditions of 5% CO2 and 37° C. for 10 days in an incubator. A mass in which the number of cells was 50 or more was defined as a colony, and the number of colonies formed on each dish was counted.

The subject of another data set is K562. As to the kind of experiment: Leukemia cell growth inhibition evaluation (WST-8). As to conditions: Homo sapiens, day 3 (72-hour culture), read-out: Human leukemia cell line GI50 (μM) K562. The data set is classed as cell-based.
Source text: as §2, §3, §4, §5

In data set [6] the test system is MLL/ENL leukemia cell line. As to the kind of experiment: Leukemia cell growth inhibition evaluation (WST-8). As to conditions: Mus musculus; day 3 (72-hour culture); read-out: Mouse MLL-fusion leukemia cell line GI50 (μM) MLL/ENL. The data set is classed as cell-based.
Source text: as §2, §3, §4, §5

Data set [7] deals with MLL/AF9 leukemia cell line. The data set can be described thus: Leukemia cell growth inhibition evaluation (WST-8). The conditions noted are these: Mus musculus, day 3 (72-hour culture), read-out: Mouse MLL-fusion leukemia cell line GI50 (μM) MLL/AF9. The data set is classed as cell-based.
Source text: as §2, §3, §4, §5

The next data set deals with M7. The data set can be described thus: Leukemia cell growth inhibition evaluation (WST-8). As to conditions: Homo sapiens; day 3 (72-hour culture); read-out: Human leukemia cell line GI50 (μM) M7. The data set is classed as cell-based.
Source text: as §2, §3, §4, §5

Counter-ions that a name gives are not always drawn.

For `O=C(N[C@@H](CCCCNC1CC1c1ccccc1)C(=O)NCc1cccc(Cl)c1)c1ccc(-c2ccccc2)cc1` (stereo partly drawn) [Example 21, 2-[N-(4-Phenylbenzenecarbonyl)]amino-6-(trans-2-phenylcyclopropan-1-amino)-N-(3-chlorobenzyl)hexanamide Hydrochloride], the GI50 in the data set with SH-SY5Y cells was 2.7 µM; with HeLa cells it was 4.3 µM; in the data set with THP1 it was 10 to 20 µM; in the data set on HL60 it was 5 to 10 µM; in the data set on U937, 10 to 20 µM; with HEL it was less than 1.3 µM. The GI50 in the data set on KG1a is 10 to 20 µM; in the data set with MDS-L, less than 1.3 µM. The half-maximal inhibitory concentration (IC50) in data set [1] and in data set [2] was more than 100 µM in each case. Moreover, the “growth inhibitory / suppressing effect on the human leukemia cell lines (in words)” value in [3] was “higher growth suppressing effects on the human leukemia cell lines than Comparative Example 2”. In addition, the “growth inhibitory / suppressing effect on the murine leukemia cell lines (in words)” value in data set [4] was “very high growth suppressing effects”. Besides, the colony forming ability entry in [5] is “not inhibited”.

As to `NC1CC1c1cccc(OCC[C@H](NC(=O)c2ccccc2)C(=O)NCc2ccccc2)c1` (stereo partly drawn) [Comp. Ex. 2, (S)-trans-N-3-[3-(2-aminocyclopropyl)phenoxy]-1-benzylcarbamoylpropylbenzamide hydrochloride, reference compound], the GI50 was 27 µM in the data set on SH-SY5Y cells; 13 µM in the data set on HeLa cells; 25 to 50 µM in the data set on K562; more than 50 µM in the data set with THP1; 6.1 to 33 µM in the data set on HL60; 25 to 50 µM in the data set on U937. Besides, the GI50 in the data set with KG1a is more than 50 µM; in data set [6] it was less than 3.1 µM; in [7] it was less than 3.1 µM; in the data set with M7, more than 50 µM. Besides, the IC50 in data set [1] was 326 µM; in data set [2], 129 µM. For the same compound, the “growth inhibitory / suppressing effect on the human leukemia cell lines (in words)” value in data set [3] is on record as “a variation in growth inhibitory effect on the human leukemia cell lines depending on the cell lines”. For the same compound, the “growth inhibitory / suppressing effect on the murine leukemia cell lines (in words)” value in [4] is listed as “high growth inhibitory effects”.
